Results as given in patent US20100093817A1, “Compounds” (BIAL - PORTELA & CA S.A., priority 2007, published 2010).
Counter-ions that a name gives are not always drawn.

How the values were obtained:
[1] = molecular target: T1, human dopamine-β-hydroxylase (Homo sapiens, UniProt P09172); experiment: Human DβH in vitro assay: β-hydroxylation of dopamine to noradrenaline, SK-N-SH cells as enzyme source; type: biochemical; parameters: key to In vitro DβH inhibition: + = inhibitory activity; conditions: for In vitro DβH inhibition / IC50: SK-N-SH cells as source of human DβH, 50 mM dopamine, test compounds 0.3 to 10,000 nM; for IC50: read-out: In vitro DβH inhibition (IC50 μM); for % control Mean ± SEM: human DβH in vitro assay
T1 construct: SK-N-SH cells (ATCC HTB-11), a human neuroblastoma derived cell line, were used as a source of human dopamine-β-hydroxylase; host or cells: SK-N-SH human neuroblastoma cells
T1 sequence (P09172 1-617): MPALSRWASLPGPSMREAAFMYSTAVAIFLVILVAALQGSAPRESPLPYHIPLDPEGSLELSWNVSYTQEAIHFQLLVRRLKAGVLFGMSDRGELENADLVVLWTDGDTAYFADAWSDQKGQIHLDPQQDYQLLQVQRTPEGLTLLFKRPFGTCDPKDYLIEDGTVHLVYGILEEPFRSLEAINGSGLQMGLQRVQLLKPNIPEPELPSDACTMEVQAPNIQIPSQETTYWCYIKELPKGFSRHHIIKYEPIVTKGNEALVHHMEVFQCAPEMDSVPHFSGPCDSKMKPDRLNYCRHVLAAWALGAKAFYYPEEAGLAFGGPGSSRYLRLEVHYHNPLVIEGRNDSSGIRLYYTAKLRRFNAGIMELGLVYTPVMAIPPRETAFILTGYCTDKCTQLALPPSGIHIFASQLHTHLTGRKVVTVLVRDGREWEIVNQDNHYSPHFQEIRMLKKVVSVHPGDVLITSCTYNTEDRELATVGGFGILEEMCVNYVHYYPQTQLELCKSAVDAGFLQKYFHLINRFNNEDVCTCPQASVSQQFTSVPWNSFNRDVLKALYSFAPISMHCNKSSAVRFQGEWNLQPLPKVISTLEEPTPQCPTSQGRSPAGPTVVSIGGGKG
Protocol: Dopamine-β-hydroxylase activity was evaluated by the ability to β-hydroxylate dopamine to noradrenaline as previously described (Kojima, K., Parvez, S. and Nagatsu T. 1993. Analysis of enzymes in catecholamine biosynthesis. In Methods in Neurotransmitter and Neuropeptide Research, pp. 349-380: Elsevier Science Publishers). SK-N-SH cells (ATCC HTB-11), a human neuroblastoma derived cell line, were used as a source of human dopamine-β-hydroxylase. SK-N-SH cells cultured in 24 well plates were preincubated for 20 min in a reaction medium containing 200 mM sodium acetate, 30 mM N-ethylmaleimide, 5 μM copper sulphate, 0.5 mg/ml catalase aqueous solution, 1 mM pargyline, 10 mM sodium fumarate and 20 mM ascorbic acid. Thereafter, cells were incubated for further 45 min in the reaction medium with added increasing concentrations of dopamine (0.5 to 100 mM). During preincubation and incubation, the cells were continuously shaken and maintained at 37° C. The reaction was terminated by the addition of 0.2 M perchloric acid. The acidified samples were stored at 4° C. before injection into the high pressure liquid chromatograph for the assay of noradrenaline. In experiments conducted with the aim of studying the effects of new dopamine-β-hydroxylase inhibitors on enzyme activity, test compounds (0.3 to 10,000 nM) of interest were added to the preincubation and incubation solutions; the incubation was performed in the presence of a concentration (50 mM) of dopamine 2.5 times the corresponding Km value as determined in saturation experiments.

[2] = literature finding; central as well as peripheral effects; cited from earlier work

Compound	In vitro DβH inhibition [1]	IC50 [1] [µM]	% control Mean ± SEM ([1]; compound at 5 μM) [% control]	crossing of the blood brain barrier (BBB) [2]	% control Mean ± SEM ([1]; compound at 0.5 μM) [% control]	% control Mean ± SEM ([1]; compound at 1 μM) [% control]
CC(=O)NCCc1c[nH]c(=S)n1[C@H]1COc2c(F)cc(F)cc2C1 [compound II, (R)-N-(2-(3-(6,8-difluorochroman-3-yl)-2-thioxo-2,3-dihydro-1H-imidazol-4-yl)ethyl)acetamide]	+	0.5				
NC(=O)Cc1c[nH]c(=S)n1[C@H]1COc2c(F)cc(F)cc2C1 [compound IV, (R)-2-(3-(6,8-difluorochroman-3-yl)-2-thioxo-2,3-dihydro-1H-imidazol-4-yl)acetamide]	+	1.8				
NCCc1c[nH]c(=S)n1[C@H]1COc2c(F)cc(F)cc2[C@@H]1O [compound VI, 5-(2-Aminoethyl)-1-((3S ,4S)-6,8-difluoro-4-hydroxychroman-3-yl)-1H-imidazole-2(3H)-thione hydrochloride]	+					
ONCCc1c[nH]c(=S)n1[C@H]1COc2c(F)cc(F)cc2C1 [compound V, (R)-1-(6,8-difluorochroman-3-yl)-5-(2-(hydroxyamino)ethyl)-1H-imidazole-2(3H)-thione hydrochloride]	+	0.5				
NCc1c[nH]c(=S)n1[C@H]1CCc2c(F)cc(F)cc2C1 [Nepicastat, reference compound]			0.4 ± 0.2	cross the blood brain barrier		
NCCc1c[nH]c(=S)n1[C@H]1COc2c(F)cc(F)cc2C1 [Compound I, (R)-5-(2-aminoethyl)-1-(6,8-difluorochroman-3-yl)-1,3-dihydroimidazole-2-thione, reference compound]	+	0.2				
O=S(=O)([O-])NCCc1c[nH]c(=S)n1[C@H]1COc2c(F)cc(F)cc2C1.[Na+] [compound VIII, Sodium (R)-2-(3-(6,8-difluorochroman-3-yl)-2-thioxo-2,3-dihydro-1H-imidazol-4-yl)ethylsulfamate]	+		3.5 ± 1.1		32.1 ± 1.1	20.3 ± 0.7
O=C(O)Cc1c[nH]c(=S)n1[C@H]1COc2c(F)cc(F)cc2C1 [compound III, (R)-2-(3-(6,8-difluorochroman-3-yl)-2-thioxo-2,3-dihydro-1H-imidazol-4-yl)acetic acid]	+	0.6				
